{"source": "patent US20030022812A1", "about": "“Treating pain by targeting hyperpolarization-activated, cyclic nucleotide-gated channels” (priority 2001, published 2003)", "key": {"CFA-injected rats": {"test_system": "CFA-injected rats", "assay": "Tactile allodynia (von Frey) in complete Freund's adjuvant (CFA) paw model of inflammatory pain", "assay_type": "in vivo, rat", "conditions": "i.p.; ZD7288 10 mg/kg, ibuprofen 30 mg/kg, morphine 3 mg/kg, gabapentin 100 mg/kg"}, "SNL rats": {"test_system": "SNL rats", "assay": "Tactile allodynia (von Frey) in SNL (Chung) neuropathic pain model", "assay_type": "in vivo, rat", "procedure": "Preparation of SNL (spinal nerve ligation) model: All studies were conducted in keeping with the guidelines of the Institutional Animal Care Committees of the University of California, San Diego and RWJPRI. Male Harlan Sprague-Dawley rats, 100-150 g, were housed in cages with solid bottoms and sawdust bedding, with a 12/12 h reversed light cycle (lights on 2100-900), and allowed free access to food pellets and water. Animals were housed in groups of 2 after surgical interventions. A surgical neuropathy was created as follows, to create a model commonly referred to as the SNL, or spinal nerve ligation model, also commonly referred to as the Chung model. Under isoflurane/oxygen anesthesia, a dorsal midline incision was made from approximately L3-S2. Using a mixture of sharp and blunt dissection, the left L6/S1 posterior interarticular process was exposed and resected to permit adequate visualization of the L6 transverse process, which was gently removed. Careful teasing of the underlying fascia exposed the left L4 and L5 spinal nerves distal to their emergence from the intervertebral foramina. The nerves were gently separated, and the L5 and in some cases either the L4 (for in vitro electrophysiology recordings) or the L6 nerve firmly ligated with 6-0 silk suture material. The wound was then inspected for hemostasis and closed in two layers. Animals with thresholds greater than 4 g were considered unsuccessful preparations(Chaplan et al., (1994) Journal of Neuroscience Methods 53: 55-63).\nBehavioral assessment: Behavioral signs of allodynia were documented as follows. Briefly, rats were transferred to a testing cage with a wire mesh bottom and allowed to acclimate for 10-15 minutes. […] Lifting of the paw was recorded as a positive response and the next lightest filament chosen for the next measurement. […]"}}, "note": "Entries after “also recorded” stand apart in the source; their conditions may differ."}
{"smiles": "CCN(c1ccccc1)c1cc(=NC)n(C)c(C)n1.Cl", "note": "[ZD7288]", "values": [{"measurement": "suppression of CFA-induced tactile allodynia", "setting": "CFA-injected rats", "result": "suppressed allodynia; also recorded: markedly suppressed"}, {"measurement": "efficacy of allodynia suppression (% MPE)", "setting": "SNL rats; i.p.", "result": "75.7+/−15.4%"}, {"measurement": "suppression of tactile allodynia", "setting": "SNL rats; i.p. 1, 3, 10 mg/kg", "result": "blocked in a dose dependent manner; also recorded: suppressed the tactile allodynia"}, {"measurement": "untoward behavioral effects / motor function", "setting": "SNL rats; i.p., up to 10 mg/kg", "result": "No untoward behavioral effects; also recorded: without overt adverse effects on behavior"}]}
